Laboratory results as given in patent US20240024273A1, “TOPICAL ADMINISTRATION OF 2-(DIETHYLAMINO)ETHYL 2-(4-ISOBUTYLPHENYL)PROPRIONATE FOR TREATMENT OF DISEASES” (TECHFIELDS PHARMA CO., LTD., priority 2020, published 2024).
Where two headings read alike, the source gives them in different places.

Key:
[1] = 28-day GLP repeated dermal dose toxicity and toxicokinetics study; design: species or system Beagle dogs; settings: beagle, dog, in vivo, topical or ocular, 28-day dermal
[2] = test system: osteoarthritis of the knee; assay: Second Phase 2 study: WOMAC difficulty performing daily activities (functional ability) subscale score; format: in vivo, human
Text: This is a Phase 2, multicenter, randomized, double blind (within dose), Ibuprofen-placebo controlled, parallel group, dose range finding study to evaluate the efficacy, safety, and PK of 2-(diethylamino)ethyl 2-(4-isobutylphenyl)propionate spray in adult subjects with clinically symptomatic OA of the knee. For subjects with bilateral knee pain, both knees will be treated, but the most symptomatic knee (ie, the most painful knee as measured by the Western Ontario and McMaster University Osteoarthritis Index [WOMAC® 3.1] pain subscale score at Screening) will be designated as the target knee for efficacy analyses. For subjects with unilateral knee pain, only the symptomatic (target) knee will be treated.
The VAS version of the WOMAC will be used for the Primary and Secondary Efficacy Endpoints. Efficacy endpoints will be assessed at Screening and Baseline (Day 1) and at the Week 2, Week 4, Week 8, and Week 12/EOS visits.
(§1) 4.9.2. Secondary Efficacy Endpoints: • 1. Change from Baseline in the WOMAC (VAS) pain subscale score for the target knee at 2, 8, and 12 weeks of treatment; • 2. Change from Baseline in the WOMAC (VAS) stiffness subscale scores for the target knee and WOMAC (VAS) functional ability subscale scores at 2, 4, 8, and 12 weeks of treatment; • 3. Change from Baseline in the overall WOMAC (VAS) score at 2, 4, 8, and 12 weeks of treatment; • 4. Subject's global assessment of disease status of the target knee at 2, 4, 8, and 12 weeks of treatment; • 5. Subject's global assessment of response to therapy of the target knee at 2, 4, 8, and 12 weeks of treatment; • 6. Amount of rescue medication (acetaminophen) consumed per day for target knee pain.
The Secondary Efficacy Endpoints, change from Baseline in the WOMAC subscale scores for pain, stiffness, and functional ability, and overall WOMAC score at 2, 4, 8, and 12 weeks of treatment, will be analyzed using the same methods as for the Primary Efficacy Endpoint.

[3] = test system: osteoarthritis of the knee; assay: Second Phase 2 study: Subject Global Impression of Change (SGIC); format: in vivo, human; settings: Week 12; for SGIC, Good and Very good / SGIC, Poor and Very Poor / SGIC, fair: all subjects
Text: as §1

[4] = test system: osteoarthritis of the knee; assay: Second Phase 2 study: Subject's pain Assessment Scores (SPA); format: in vivo, human; settings: first 130 subjects
Description: Subjects will record the following information in a Daily Diary starting at Screening: the amount of knee pain in the target knee while walking during the preceding 24 hours (using a 100 mm visual analog scale [VAS]), the times and number of sprays for each administration of study medication, the times when the subject washes his/her knees and/or takes a shower, the number of tablets of rescue medication taken that day and the times taken, the reason for taking the rescue medication (e.g., knee pain, headache, low back pain), any other concomitant medications taken that day, and any AEs occurring that day.

[5] = 17.5 mg/knee BID, Week 12, first 130 subjects
[6] = 4.375 mg/knee BID (n = 23), first 130 subjects
[7] = 8.75 mg/knee BID (n = 24), first 130 subjects
[8] = 17.5 mg/knee BID (n = 19), first 130 subjects
[9] = Week 12, 4.375 mg/knee BID (n = 23), first 130 subjects
[10] = Week 12, 8.75 mg/knee BID (n = 24), first 130 subjects
[11] = Week 12, 17.5 mg/knee BID (n = 19), first 130 subjects
[12] = all subjects, 4.375 mg/knee BID, n = 49, Week 12
[13] = all subjects, 8.75 mg/knee BID, n = 54, Week 12
[14] = all subjects, 17.5 mg/knee BID, n = 52, Week 12
[15] = Week 12, 4.375 mg/knee BID (n = 23)

Structure (SMILES): CCN(CC)CCOC(=O)C(C)c1ccc(CC(C)C)cc1 (centres unmarked) [2-(diethylamino)ethyl 2-(4-isobutylphenyl)propionate]
- NOAEL at 28 days ([1]; read-out: NOAEL (not attained; ulcers at application site at lowest dose)): < 12.4 mg/kg/day
- NOAEL at 28 days ([1]; read-out: systemic NOAEL (tissues other than the dermal application site)): 24.8 mg/kg/day
- WOMAC functional ability, difference from oral ibuprofen [2, 5]: −15.6
- WOMAC functional ability, difference from placebo [2, 5]: −19.1
- WOMAC Difficulty Performing Daily Activities Subscale Score, Day 1, Avg. ([2]; Avg. of all patients (blinded), Low Dose (2 spray/knee, 8.75 mg/knee) Cohort, Day 1): 60.4
- WOMAC Difficulty Performing Daily Activities Subscale Score, Follow-up, Avg. ([2]; Avg. of all patients (blinded), Low Dose (2 spray/knee, 8.75 mg/knee) Cohort, Follow-up): 40.1
- WOMAC Difficulty Performing Daily Activities Subscale Score, Week 2, Avg. ([2]; Avg. of all patients (blinded), Low Dose (2 spray/knee, 8.75 mg/knee) Cohort, Week 2): 49.8
- WOMAC Difficulty Performing Daily Activities Subscale Score, Week 4, Avg. ([2]; Avg. of all patients (blinded), Low Dose (2 spray/knee, 8.75 mg/knee) Cohort, Week 4): 44.0
- WOMAC Difficulty Performing Daily Activities Subscale Score, Week 8, Avg. ([2]; Avg. of all patients (blinded), Low Dose (2 spray/knee, 8.75 mg/knee) Cohort, Week 8): 41.1
- WOMAC Difficulty Performing Daily Activities Subscale Score, Week 12, Avg. ([2]; Avg. of all patients (blinded), Low Dose (2 spray/knee, 8.75 mg/knee) Cohort, Week 12): 39.8
- WOMAC Difficulty Performing Daily Activities Subscale Scores, Baseline (LS Mean) [2, 6]: 60.2 mm
- WOMAC Difficulty Performing Daily Activities Subscale Scores, Baseline (LS Mean) [2, 7]: 61.6 mm
- WOMAC Difficulty Performing Daily Activities Subscale Scores, Baseline (LS Mean) [2, 8]: 63.9 mm
- WOMAC Difficulty Performing Daily Activities Subscale Scores, % of improvement from Oral Ibuprofen [2, 9]: −10.9%
- WOMAC Difficulty Performing Daily Activities Subscale Scores, % of improvement from Placebo [2, 9]: −14.2%
- WOMAC Difficulty Performing Daily Activities Subscale Scores, % of improvement from baseline [2, 9]: −43.9%
- WOMAC Difficulty Performing Daily Activities Subscale Scores, Changes from Baseline (LS Mean) [2, 9]: −26.4 mm
- WOMAC Difficulty Performing Daily Activities Subscale Scores, Different from oral ibuprofen (LS Mean) [2, 9]: −4.8 mm
- WOMAC Difficulty Performing Daily Activities Subscale Scores, Different from placebo (LS Mean) [2, 9]: −8.3 mm
- WOMAC Difficulty Performing Daily Activities Subscale Scores, Week 12 (LS Mean) [2, 9]: 33.8 mm
- WOMAC Difficulty Performing Daily Activities Subscale Scores, % of improvement from Oral Ibuprofen [2, 10]: −12.5%
- WOMAC Difficulty Performing Daily Activities Subscale Scores, % of improvement from Placebo [2, 10]: −15.9%
- WOMAC Difficulty Performing Daily Activities Subscale Scores, % of improvement from baseline [2, 10]: −45.6%
- WOMAC Difficulty Performing Daily Activities Subscale Scores, Changes from Baseline (LS Mean) [2, 10]: −28.1 mm
- WOMAC Difficulty Performing Daily Activities Subscale Scores, Different from oral ibuprofen (LS Mean) [2, 10]: −6.6 mm
- WOMAC Difficulty Performing Daily Activities Subscale Scores, Different from placebo (LS Mean) [2, 10]: −10.0 mm
- WOMAC Difficulty Performing Daily Activities Subscale Scores, Week 12 (LS Mean) [2, 10]: 33.4 mm
- WOMAC Difficulty Performing Daily Activities Subscale Scores, % of improvement from Oral Ibuprofen [2, 11]: −25.2%
- WOMAC Difficulty Performing Daily Activities Subscale Scores, % of improvement from Placebo [2, 11]: −28.5%
- WOMAC Difficulty Performing Daily Activities Subscale Scores, % of improvement from baseline [2, 11]: −58.2%
- WOMAC Difficulty Performing Daily Activities Subscale Scores, Changes from Baseline (LS Mean) [2, 11]: −37.2 mm
- WOMAC Difficulty Performing Daily Activities Subscale Scores, Different from oral ibuprofen (LS Mean) [2, 11]: −15.6 mm
- WOMAC Difficulty Performing Daily Activities Subscale Scores, Different from placebo (LS Mean) [2, 11]: −19.1 mm
- WOMAC Difficulty Performing Daily Activities Subscale Scores, Week 12 (LS Mean) [2, 11]: 26.7 mm
- WOMAC Difficulty Performing Daily Activities Subscale Scores, % of improvement from Oral Ibuprofen [2, 12]: −1.3%
- WOMAC Difficulty Performing Daily Activities Subscale Scores, % of improvement from Placebo [2, 12]: −5.6%
- WOMAC Difficulty Performing Daily Activities Subscale Scores, % of improvement from baseline [2, 12]: −42.8%
- WOMAC Difficulty Performing Daily Activities Subscale Scores, Changes from Baseline (LS Mean) [2, 12]: −25.4 mm
- WOMAC Difficulty Performing Daily Activities Subscale Scores, Week 12 (LS Mean) [2, 12]: 33.9 mm
- WOMAC Difficulty Performing Daily Activities Subscale Scores, % of improvement from Oral Ibuprofen [2, 13]: −4.6%
- WOMAC Difficulty Performing Daily Activities Subscale Scores, % of improvement from Placebo [2, 13]: −8.9%
- WOMAC Difficulty Performing Daily Activities Subscale Scores, % of improvement from baseline [2, 13]: −46.1%
- WOMAC Difficulty Performing Daily Activities Subscale Scores, Changes from Baseline (LS Mean) [2, 13]: −27.9 mm
- WOMAC Difficulty Performing Daily Activities Subscale Scores, Different from oral ibuprofen (LS Mean) [2, 13]: −2.7 mm
- WOMAC Difficulty Performing Daily Activities Subscale Scores, Different from placebo (LS Mean) [2, 13]: −6.0 mm
- WOMAC Difficulty Performing Daily Activities Subscale Scores, Week 12 (LS Mean) [2, 13]: 32.6 mm
- WOMAC Difficulty Performing Daily Activities Subscale Scores, % of improvement from Oral Ibuprofen [2, 14]: −11.0%
- WOMAC Difficulty Performing Daily Activities Subscale Scores, % of improvement from Placebo [2, 14]: −15.3%
- WOMAC Difficulty Performing Daily Activities Subscale Scores, % of improvement from baseline [2, 14]: −52.5%
- WOMAC Difficulty Performing Daily Activities Subscale Scores, Changes from Baseline (LS Mean) [2, 14]: −31.4 mm
- WOMAC Difficulty Performing Daily Activities Subscale Scores, Different from placebo (LS Mean) [2, 14]: −9.5 mm
- WOMAC Difficulty Performing Daily Activities Subscale Scores, Week 12 (LS Mean) [2, 14]: 28.3 mm
- Subject's satisfaction rate (SGIC good and very good) ([3]; 17.5 mg/knee BID, first 130 subjects): 73.7%
- SGIC: Good and Very good [3, 6]: 39.1%
- SGIC: Poor and Very Poor [3, 6]: 4.3%
- SGIC: fair [3, 6]: 56.5%
- SGIC: Good and Very good [3, 7]: 37.5%
- SGIC: Poor and Very Poor [3, 7]: 16.7%
- SGIC: fair [3, 7]: 45.8%
- SGIC: Good and Very good [3, 8]: 73.7%
- SGIC: Poor and Very Poor [3, 8]: 5.3%
- SGIC: fair [3, 8]: 21.1%
- SGIC, Good and Very good ([3]; 4.375 mg/knee BID, n = 49): 32.7%
- SGIC, Poor and Very Poor ([3]; 4.375 mg/knee BID, n = 49): 10.2%
- SGIC, fair ([3]; 4.375 mg/knee BID, n = 49): 57.1%
- SGIC, Good and Very good ([3]; 8.75 mg/knee BID, n = 54): 46.3%
- SGIC, Poor and Very Poor ([3]; 8.75 mg/knee BID, n = 54): 16.7%
- SGIC, fair ([3]; 8.75 mg/knee BID, n = 54): 37.0%
- SGIC, Good and Very good ([3]; 17.5 mg/knee BID, n = 52): 61.5%
- SGIC, Poor and Very Poor ([3]; 17.5 mg/knee BID, n = 52): 5.8%
- SGIC, fair ([3]; 17.5 mg/knee BID, n = 52): 32.7%
- SPA, difference from oral ibuprofen ([4]; 17.5 mg/knee BID, Week 12): −14.1 mm
- SPA, difference from placebo ([4]; 17.5 mg/knee BID, Week 12): −21.0 mm
- Subject’s pain Assessment Scores, Baseline (LS Mean) ([4]; 4.375 mg/knee BID (n = 23)): 59.7 mm
- Subject’s pain Assessment Scores, Baseline (LS Mean) ([4]; 8.75 mg/knee BID (n = 24)): 63.5 mm
- Subject’s pain Assessment Scores, Baseline (LS Mean) ([4]; 17.5 mg/knee BID (n = 19)): 68.6 mm
- Subject’s pain Assessment Scores, % of improvement from Oral Ibuprofen [4, 15]: −2.3%
- Subject’s pain Assessment Scores, % of improvement from baseline [4, 15]: −38.5%
- Subject’s pain Assessment Scores, % of improvement from placebo [4, 15]: −9.3%
- Subject’s pain Assessment Scores, Changes from Baseline (LS Mean) [4, 15]: −23.0 mm
